From article PMC10179937, “Cytotoxic Activity, Topoisomerase I Inhibition and In Silico Studies of New Sesquiterpene-aryl Ester Derivatives of (-) Drimenol” (Molecules, 2023)
Where two headings read alike, the source gives them in different places.

What was measured:
[1] = system: PC-3 (prostate adenocarcinoma); details: literature value, same experimental conditions; cited from earlier work
[2] = system: MCF-7 (breast adenocarcinoma); details: cited from earlier work; for IC50: literature value, same experimental conditions
[3] = system: MCF-10 control cells (normal breast epithelium); details: literature value; cited from earlier work
[4] = system: HT-29 (colorectal adenocarcinoma); design: method as in PMID 25412045; details: literature value, same experimental conditions; cited from earlier work
[5] = system: HT-29 (colorectal adenocarcinoma); experiment: Sulforhodamine B in vitro growth inhibition assay, HT-29; format: cell-based, human; details: for Selectivity Index (SI) MCF-10/HT-29: IC50 in non-cancerogenic cell line / IC50 in cancer cell line; for IC50: Homo sapiens, HT-29, sulforhodamine B assay, 72 h of treatment, IC50 ± SD
Method: (§1) For this purpose, a colorimetric sulforhodamine B assay was performed to quantify the cytotoxic effect through their respective IC50 values. Each compound’s serial dilutions (12.5, 25, 50, and 100 µM) were evaluated in triplicate. In our study, the human cancer cell lines used were MCF-7 (breast adenocarcinoma); HT-29 (colorectal adenocarcinoma); PC-3 (prostate adenocarcinoma); and MCF-10 control cells (normal breast epithelium). For comparative purposes, the literature IC50 values of daunorubicin and 5-fluorouracil (5-FU), measured in the same cell lines and under the same experimental conditions, were included. Similarly, drimenol (1) was included for comparative purposes.
(§2) The sulforhodamine B assay was used. Briefly, the cells were set up at 5 × 10^3 cells per well of a 96-well microplate for 18 h. Cells were incubated at 37 °C in a humidified 5% CO2/95% air mixture and treated with the compounds at different concentrations for 72 h. At the end of drug exposure, cells were fixed with 50% trichloroacetic acid at 4 °C. After washing with distilled water, cells were stained with 0.1% sulforhodamine B, dissolved in 1% acetic acid (50 μL/well) for 30 min, and, subsequently, washed with 1% acetic acid to remove the unbound stain. The protein-bound stain was solubilized with 100 μL of 10 mM unbuffered Tris base, and the cell density was determined using a […] (wavelength 540 nm). Results are expressed as IC50 values (μM) ± SD.

[6] = system: MCF-7 (breast adenocarcinoma); experiment: Sulforhodamine B in vitro growth inhibition assay, MCF-7; format: cell-based, human; details: for Selectivity Index (SI) MCF-10/MCF-7: IC50 in non-cancerogenic cell line / IC50 in cancer cell line; for IC50: Homo sapiens, MCF7, sulforhodamine B assay, 72 h of treatment, IC50 ± SD
Method: as §1, §2

[7] = system: PC-3 (prostate adenocarcinoma); experiment: Sulforhodamine B in vitro growth inhibition assay, PC-3; format: cell-based, human; details: for Selectivity Index (SI) MCF-10/PC-3: IC50 in non-cancerogenic cell line / IC50 in cancer cell line; for IC50: Homo sapiens, sulforhodamine B assay, 72 h of treatment, IC50 ± SD
Method: as §1, §2

[8] = system: MCF-10 control cells (normal breast epithelium); experiment: Sulforhodamine B in vitro growth inhibition assay, MCF-10 control cells; format: cell-based; details: Homo sapiens, MCF10, 72 h of treatment, IC50 ± SD, non-tumoral cells
Method: as §1, §2

[9] = system: caspases 3 and 7 on MCF-7 cells; experiment: Caspase-Glo 3/7 assay; format: cell-based, human; details: 50 μM, 24 h
Method: To determine the cell death type induced by the most promising aryl-drimane esters, we evaluated their capacity to induce apoptosis through the activation of caspases 3 and 7 on MCF-7 cells. For this purpose, 6a, 6e, 6f, 8c, 8f, and 8g were incubated for 24 h on MCF-7 cells at a concentration of 50 μM, close to the IC50 values for cytotoxicity in most compounds. […] In summary, these drimane derivatives induced apoptosis in the MCF-7 cell line, showing a potential antitumoral effect.
The activity of caspase 3/7 in treated MCF-7 cells was determined using a Caspase-Glo-3/7 Assay kit (Promega, UK—Cat. No G8090). The caspase-Glo 3/7 assay is a homogenous, luminescent assay that measures caspase-3 and -7 activities, both key-players in apoptosis. […] Luminescence was proportional to the amount of caspase present. MCF-7 cells (1 × 10^4 cells per well) were grown in a 96-well white plate and were allowed to adhere overnight. The cells were then treated for 24 h with the synthesized compounds (50 µM), with the inclusion of a blank as a control. After treatment, the Caspase-Glo® 3/7 was prepared according to the manufacturer’s guidelines. Briefly, 100 μL of Caspase-Glo 3/7 reagent was added to 100 μL of culture medium containing the cells previously treated in each well. The content was mixed gently by placing the plate on a shaker for 30 s, and the plate was incubated at room temperature in the dark for 1 h before luminescence was read on a luminometer (Berthold Sirius Single Tube Luminometer, Pforzheim, Germany). Fold change in caspase activity was obtained by first subtracting the luminescence value for the blank well from every other value, and then, expressing the average luminescence of each treatment as a fold change with respect to the average luminescence of the negative control.

Row | SMILES | IC50 [1] [µM] | IC50 [2] [µM] | IC50 [3] [µM] | IC50 [4] [µM] | Selectivity Index (SI) MCF-10/HT-29 [5] | Selectivity Index (SI) MCF-10/MCF-7 [6] | Selectivity Index (SI) MCF-10/PC-3 [7] | IC50 [8] [µM] | IC50 [5] [µM] | IC50 [6] [µM] | IC50 [7] [µM] | melting point [°C] | caspases-3/7 activity over the control [9] | cytotoxicity ([2]; two cell lines, ref Montenegro et al.)
1 | O=c1[nH]cc(F)c(=O)[nH]1 [5-FU, 5-fluorouracil] | 16.4 ± 0.6 | 22.3 ± 0.2 | < 0.5 | 2.9 ± 0.7 | 0.2 | 0.02 | 0.03 |  |  |  |  |  |  | 
2 | COc1cc(C)cc(OC(=O)C2=C(C)CCC3C(C)(C)CCC[C@]23C)c1 (stereo partly drawn) [6b, 3-Methoxy-5-methylphenyl-(8aS)-2,5,5,8a-tetramethyl-3,4,4a,5,6,7,8,8a-octahydronaphthalene-1-carboxylate] |  |  |  |  |  |  |  | 67.2 ± 15.3 | > 100 | > 100 | > 100 |  |  | 
3 | COC(=O)c1c(C)cc(OC(=O)C2=C(C)CCC3C(C)(C)CCC[C@]23C)cc1O (stereo partly drawn) [6c, 3-Hydroxy-4-(methoxycarbonyl)-5-methylphenyl-(8aS)-2,5,5,8a-tetramethyl-3,4,4a,5,6,7,8,8a-octahydronaphthalene-1-carboxylate] |  |  |  |  |  |  |  | > 100 | > 100 | > 100 | > 100 | 124 |  | 
4 | COC(=O)c1c(C)cc(OC(=O)C2=C(C)CCC3C(C)(C)CCC[C@]23C)c(C)c1O (stereo partly drawn) [6d, 3-Hydroxy-4-(methoxycarbonyl)-2,5-dimethylphenyl-(8aS)-2,5,5,8a-tetramethyl-3,4,4a,5,6,7,8,8a-octahydronaphthalene-1-carboxylate] |  |  |  |  |  |  |  | > 100 | > 100 | > 100 | > 100 | 128 |  | 
5 | COc1cc(OC(=O)C2=C(C)CCC3C(C)(C)CCC[C@]23C)ccc1C=O (stereo partly drawn) [6e, 4-Formyl-3-methoxyphenyl-(8aS)-2,5,5,8a-tetramethyl-3,4,4a,5,6,7,8,8a-octahydronaphthalene-1-carboxylate] |  |  |  |  | 1.3 | 1.3 | 0.9 | 50 ± 8.9 | 38.1 ± 2 | 38.3 ± 2.6 | 52.9 ± 8.2 |  | two-fold | 
6 | COc1cc(C=O)ccc1OC(=O)C1=C(C)CCC2C(C)(C)CCC[C@]12C (stereo partly drawn) [6f, 4-Formyl-2-methoxyphenyl-(8aS)-2,5,5,8a-tetramethyl-3,4,4a,5,6,7,8,8a-octahydronaphthalene-1-carboxylate] |  |  |  |  | 0.3 | 0.7 | 0.5 | 16.5 ± 0.9 | 58 ± 3.9 | 22.4 ± 1 | 30.9 ± 2.5 |  | two-fold | 
7 | COc1cc(OC)cc(C(=O)OC[C@H]2C(C)=CCC3C(C)(C)CCC[C@@]32C)c1 (stereo partly drawn) [8a, ((1S,8aS)-2,5,5,8a-tetramethyl-1,4,4a,5,6,7,8,8a-octahydronaphthalen-1-yl)methyl-3,5-dimethoxybenzoate] |  |  |  |  |  |  |  | 44.8 ± 3.1 | > 100 | > 100 | > 100 |  |  | 
8 | COc1cc(C(=O)OC[C@H]2C(C)=CCC3C(C)(C)CCC[C@@]32C)cc(OC)c1C (stereo partly drawn) [8b, ((1S,8aS)-2,5,5,8a-tetramethyl-1,4,4a,5,6,7,8,8a-octahydronaphthalen-1-yl)methyl 3,5-dimethoxy-4-methylbenzoate] |  |  |  |  |  |  |  | 21.2 ± 3.1 | > 100 | > 100 | > 100 |  |  | 
9 | CC1=CCC2C(C)(C)CCC[C@]2(C)[C@H]1COC(=O)c1cc(O)c(C)c(O)c1 (stereo partly drawn) [8c, ((1S,8aS)-2,5,5,8a-tetramethyl-1,4,4a,5,6,7,8,8a-octahydronaphthalen-1-yl)methyl-3,5-dihydroxy-4-methylbenzoate] |  |  |  |  |  |  |  | > 100 | > 100 | 35.9 ± 6.4 | > 100 |  | two-fold | 
10 | COc1cc(C(=O)OC[C@H]2C(C)=CCC3C(C)(C)CCC[C@@]32C)cc(OC)c1O (stereo partly drawn) [8d, ((1S,8aS)-2,5,5,8a-tetramethyl-1,4,4a,5,6,7,8,8a-octahydronaphthalen-1-yl)methyl-4-hydroxy-3,5-dimethoxybenzoate] |  |  |  |  | 0.4 | 0.9 | 0.5 | 16.5 ± 0.5 | 44.7 ± 6.7 | 18.4 ± 0.5 | 33.3 ± 2.9 | 105 |  | 
11 | COc1cc(C(=O)OC[C@H]2C(C)=CCC3C(C)(C)CCC[C@@]32C)cc(OC)c1OC (stereo partly drawn) [8e, ((1S,8aS)-2,5,5,8a-tetramethyl-1,4,4a,5,6,7,8,8a-octahydronaphthalen-1-yl)methyl-3,4,5-trimethoxybenzoate] |  |  |  |  | 0.6 | 0.6 | 0.4 | 32.1 ± 8.3 | 51.5 ± 3.2 | 51 ± 10 | 76.9 ± 10.2 |  |  | 
12 | COc1ccc(C(=O)OC[C@H]2C(C)=CCC3C(C)(C)CCC[C@@]32C)c(OC)c1OC (stereo partly drawn) [8f, ((1S,8aS)-2,5,5,8a-tetramethyl-1,4,4a,5,6,7,8,8a-octahydronaphthalen-1-yl)methyl-2,3,4-trimethoxybenzoate] |  |  |  |  |  |  |  | 6.8 ± 0.9 | 26.2 ± 5.4 | 6.2 ± 0.5 | 7.1 ± 1.1 |  | 3.5 fold | 
13 | COc1cc(OC)c(C(=O)OC[C@H]2C(C)=CCC3C(C)(C)CCC[C@@]32C)cc1OC (stereo partly drawn) [8g, ((1S,8aS)-2,5,5,8a-tetramethyl-1,4,4a,5,6,7,8,8a-octahydronaphthalen-1-yl)methyl-2,4,5-trimethoxybenzoate] |  |  |  |  | 0.5 | 0.6 | 0.6 | 16.3 ± 0.6 | 31.3 ± 2 | 28.7 ± 3.5 | 27.7 ± 2.6 |  | 3.5 fold | 
14 | CC1=CCC2C(C)(C)CCCC2(C)C1CO (stereo not drawn) [Drimenol] | > 100 | > 100 |  |  |  |  |  |  |  |  |  |  |  | inactive
